Data taken from patent publication US8104331B2, “Method and device to extract components contained in a fluid” (Noab Biodiscoveries Inc., priority 2006, dated 2012).

Key:
[1] = In vivo SPME sampling of whole blood for pharmacokinetics after i.v. bolus diazepam; settings: rat; for AUMC0-inf / AUMC0-tlast: metabolite, SPME (blood, equilibrium calibration), i.v. bolus 0.5 mg/kg diazepam, noncompartmental; for AUMC: SPME/blood, 2-compartment analysis
Protocol: (§1) Animal Experiments: Male Sprague-Dawley rats (Charles River Labs, St. Constant, PQ) with an average weight of 300 g are acclimatized to their new environment for a minimum of 5 days prior to surgery. […] The catheters are plugged with removable metal plugs at the free end and then exteriorized by threading them under the skin and through a small incision at the nape of the neck. Animals are allowed to recover overnight prior to dosing. […] In vivo mouse experiments are conducted with conscious male Swiss Webster mice implanted with a carotid artery catheter. All procedures followed have been reviewed by the NoAb BioDiscoveries Inc. animal care committee and were performed in accordance with the principles of the Canadian Council on Animal Care (CCAC).
A device to extract components is attached to the carotid artery catheter prior to dosing each rat or mouse. To insert the probes, the tip of the SPME probe needle is used to pierce the septum of the device. The length of the fiber or wire of the probe is chosen so that the coated wire is completely exposed to the blood flow when the plunger is fully depressed. Before use, the SPME probe is sterilized in an autoclave at 121° C. and 15 psi for about 30 minutes. For validation purposes, blood draws are taken from the same interface after each sampling with SPME. All the probes are for single use.
(§2) For each time point (5, 15, 30, 45, 60, 75, 120, 180, 240 and 360 min), the probes are in place for about two (2) minutes before the stated analysis time and blood draws are performed immediately after removing the probes. After the two (2) minute extraction time, the probes are removed, rinsed with water, and stored at −20° C. until the next day, when analysis is performed. […] For SPME calibration, rat whole blood is spiked with appropriate amounts of benzodiazepines and incubated with 10% CO2 atmosphere. The analytical range is 3-750 ng/mL.
(§3) Areas under the plasma concentration versus time curves (AUCs) represent the areas under the curve from the time of dosing and extrapolated to infinity. […] The total body clearance (CL) is estimated as: Dose/AUC. Mean residence times (MRT) are calculated as: AUMC/AUC, where AUMC denotes the area under the first moment curve. The steady-state volume of distribution (Vss) is calculated as: CL*MRT.
(§4) AUCs are calculated by the linear/log-linear trapezoidal rule. AUCs represent the areas under the curve from the time of dosing: (1) to the time (tlast) of the last measurable concentration, Clast (AUC0-tlast) and, (2) extrapolated to infinity (AUC0-inf). AUC0-inf is estimated by the addition of AUC0-tlast and Clast/k, where k (or λz) represents the terminal elimination rate constant. K is estimated by weighted (1/Y^2) regression analysis of at least 4 time points from the terminal (log-linear) portion of the concentration versus time curve.
In vivo experiments are conducted with conscious male Sprague-Dawley rats implanted with jugular vein and carotid artery catheters. The catheters are plugged and exteriorized at the nape of the neck. Prior to dosing, the opening of the device is connected to the carotid artery catheter. The channel of the device is either connected to the jugular vein catheter or is connected to a syringe pump. Connecting the device to the jugular vein catheter allowed for automatic return of the arterial blood, using the pumping action of the heart of the animal. Connecting the device to a syringe allows for precise control of the blood flow rate through the device. The device and the associated tubing are kept warm at 38° C.
At each sampling time point, a sterile SPME device is placed through the septum into the interface so that only the coated portion of the fiber is exposed to the flowing blood. Blood flow through the device is either allowed to run freely via recirculation to the jugular vein or is induced by the push/pull action of a syringe attached to the channel.

[2] = Conventional plasma sampling and analysis for pharmacokinetics after i.v. bolus diazepam; settings: rat; for AUMC0-inf / AUMC0-tlast: metabolite, i.v. bolus 0.5 mg/kg diazepam, noncompartmental; for AUMC: 2-compartment analysis
Protocol: as §1, §2
Conventional Plasma Sampling and Analysis: In addition to SPME sampling, 0.2 mL of blood is withdrawn from the interface at each time point. Plasma is isolated by centrifugation at 2500 rpm for 10 minutes and frozen at −20° C. in 2 mL cryovials (Wheaton Science Products, Millville, N.J.) until analysis. For analysis, 0.05 mL of plasma is mixed with 0.25 mL acetonitrile containing 25 ng/mL lorazepam as internal standard in conical centrifuge vials. After vortex mixing (2400 rpm, 5 minutes) and centrifugation (14000 rpm, 7 minutes), 0.2 mL of the supernatant is transferred to a 96-well plate and evaporated to dryness under flowing nitrogen. The residue is dissolved in 0.1 mL acetonitrile/water (75:25) on a shaking bed (150 rpm). Twenty μL is injected for analysis using the same chromatographic conditions as for the analysis of SPME probes. The linear range is 0.1-1000 ng/mL.
as §3, §4
For validation of the in vivo sampling method taught by the applicant's teachings, blood is sampled after each probe extraction, and plasma is isolated by centrifugation.

Structure (SMILES)	AUMC0-inf [1] [h^2*ng/mL]	AUMC0-tlast [1] [h^2*ng/mL]	AUMC0-inf [2] [h^2*ng/mL]	AUMC0-tlast [2] [h^2*ng/mL]	AUMC ([1]; equilibrium calibration, diazepam 0.5 mg/kg i.v. bolus) [h^2*ng/mL]	AUMC ([1]; kinetic calibration, diazepam 1 mg/kg i.v. bolus) [h^2*ng/mL]	AUMC ([2]; equilibrium calibration study, diazepam 0.5 mg/kg i.v. bolus) [h^2*ng/mL]	AUMC ([2]; kinetic calibration study, diazepam 1 mg/kg i.v. bolus) [h^2*ng/mL]
O=C1CN=C(c2ccccc2)c2cc(Cl)ccc2N1 [Nordiazepam, nordiazepam]	50.0	7.86	16.5	6.38	–	–	–	–
O=C1Nc2ccc(Cl)cc2C(c2ccccc2)=NC1O (stereo not drawn) [Oxazepam, oxazepam]	834	278	293	176	–	–	–	–
CN1C(=O)CN=C(c2ccccc2)c2cc(Cl)ccc21 [diazepam]	–	–	–	–	527	741	319	1000
